The term IC50 denotes the concentration needed to halve the response being measured.

Here are results for four compounds from US20220184093A1, “ANTI-VIRAL ACTIVITY OF VPS34 INHIBITORS” (priority 2020, published 2022).

One data set deals with SARS-CoV-2. Description: microbe, parasite or virus in culture. The format is cell-based. The following applies: Severe acute respiratory syndrome coronavirus 2, A549, 48 h; read-out: IC50 for inhibition of SARS CoV-2 mediated cell killing.
Data set [1] in a line: in vitro. The following applies: African green monkey.
The test system of data set [2] is coronavirus USA_WA1/2020 SARS CoV-2. Description: SARS CoV-2 CPE assay for antiviral activity (Vero E6 host cells, Cell Titer-Glo). The following applies: Vero C1008, 10-point dose response, high concentration 15 μM, 72 hours, read-out: IC50 for inhibition of SARS CoV-2 mediated cell killing. The format is cell-based. A general note: ATP-based viability assays read luminescence as a measure of living cells.

Data set [3] in a line: in vitro. The following applies: human.

Take `C[C@@H]1COCCN1c1cc(N2CCN(S(=O)(=O)N3CCCC3)CC2C(F)(F)F)[nH]c(=O)c1` (stereo partly shown) [Compound 1]: the IC50 in the data set with SARS-CoV-2 amounted to 0.16 µM; in data set [2], 0.9 µM. Moreover, the CC50 in “in vitro [1]” was 29 µM; in the data set “in vitro [3]” it was 24 µM.
For `C[C@@H]1COCCN1c1cc(N2CCN(S(=O)(=O)N(C)C)CC2C(F)(F)F)[nH]c(=O)c1` (stereo partly shown) [Compound 4] the same measures were 0.369 µM, 1.12 µM, more than 10 µM and more than 10 µM.
Regarding `C[C@@H]1COCCN1c1cc(N2CCN(S(=O)(=O)c3cncc(F)c3)CC2C(F)(F)F)[nH]c(=O)c1` (stereo partly shown) [Compound 2], the IC50 turned out to be 0.12 µM with SARS-CoV-2 and 0.409 µM in data set [2]. The CC50 in “in vitro [1]” and in “in vitro [3]” was more than 10 µM throughout.
On to `C[C@@H]1COCCN1c1cc(N2CCN(S(=O)(=O)Cc3ccc(F)cc3)CC2C(F)(F)F)[nH]c(=O)c1` (stereo partly shown) [Compound 3], for which the values for the IC50 (with SARS-CoV-2; in data set [2]) were 0.039 µM and 0.224 µM, respectively. For the same compound, the CC50 is more than 10 µM in “in vitro [1]” and 5160 µM in the data set “in vitro [3]”.
